Experimental data as given in ChEMBL document CHEMBL1152433, “Pyrano[3,2-c]quinoline-6-chlorotacrine hybrids as a novel family of acetylcholinesterase- and beta-amyloid-directed anti-Alzheimer compounds” (J Med Chem, 2009).
Blank lines part the entries; values can stand above or below the molecule they belong to. Activity calls are given as the source filed them. No cut-off for these calls is given here.

Assays:
[1] = molecular target: T1, Acetylcholinesterase (Bos taurus, UniProt P23795); assay: Inhibition of bovine AChE by Ellman's method
T1 sequence (P23795 whole entry): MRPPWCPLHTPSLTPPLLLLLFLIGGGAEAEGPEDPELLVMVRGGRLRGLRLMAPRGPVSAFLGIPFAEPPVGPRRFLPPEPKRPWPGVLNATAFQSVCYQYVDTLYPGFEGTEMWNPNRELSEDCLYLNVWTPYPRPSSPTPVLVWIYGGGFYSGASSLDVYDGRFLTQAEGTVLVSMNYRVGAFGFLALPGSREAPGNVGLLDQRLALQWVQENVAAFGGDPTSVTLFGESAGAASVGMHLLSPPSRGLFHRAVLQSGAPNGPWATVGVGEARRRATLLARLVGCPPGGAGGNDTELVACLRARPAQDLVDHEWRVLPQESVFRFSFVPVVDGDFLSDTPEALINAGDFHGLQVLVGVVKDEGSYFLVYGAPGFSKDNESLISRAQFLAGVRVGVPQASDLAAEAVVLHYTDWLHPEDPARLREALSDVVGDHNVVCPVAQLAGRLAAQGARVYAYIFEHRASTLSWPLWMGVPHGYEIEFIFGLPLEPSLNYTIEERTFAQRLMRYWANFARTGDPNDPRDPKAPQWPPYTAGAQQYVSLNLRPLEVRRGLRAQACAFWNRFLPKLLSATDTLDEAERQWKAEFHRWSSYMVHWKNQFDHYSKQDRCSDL

[2] = molecular target: Amyloid-beta precursor protein (Homo sapiens) (UniProt P05067); assay: Inhibition of self-induced amyloid beta (1-42) aggregation at 50 uM by thioflavin T fluorescence method
[3] = molecular target: T2, Beta-secretase 1 (Homo sapiens, UniProt P56817); assay: Inhibition of human recombinant BACE1 at 2.5 uM by fluorimetric assay
[4] = in vitro; conditions: PAMPA
Description: Membrane permeability dissolved in PBS/EtOH (70:30) mixture by PAMPA-BBB assay

[5] = molecular target: Cholinesterase (Homo sapiens, UniProt P06276); assay: Inhibition of human serum BChE by Ellman's method
[6] = molecular target: T2, Beta-secretase 1; assay: Inhibition of human recombinant BACE1 by fluorimetric assay
[7] = molecular target: T3, Acetylcholinesterase (Homo sapiens, UniProt P22303)
Description: Inhibition of AChE in human erythrocytes by Ellman's method

[8] = in vitro; conditions: PAMPA; remark: listed apart in the source
Description: Membrane permeability dissolved in PBS/EtOH (80:20) mixture by PAMPA-BBB assay

[9] = molecular target: T3, Acetylcholinesterase; assay: Inhibition of human recombinant AChE by Lineweaver-Burke reciprocal plot analysis

T2 sequence (P56817 whole entry): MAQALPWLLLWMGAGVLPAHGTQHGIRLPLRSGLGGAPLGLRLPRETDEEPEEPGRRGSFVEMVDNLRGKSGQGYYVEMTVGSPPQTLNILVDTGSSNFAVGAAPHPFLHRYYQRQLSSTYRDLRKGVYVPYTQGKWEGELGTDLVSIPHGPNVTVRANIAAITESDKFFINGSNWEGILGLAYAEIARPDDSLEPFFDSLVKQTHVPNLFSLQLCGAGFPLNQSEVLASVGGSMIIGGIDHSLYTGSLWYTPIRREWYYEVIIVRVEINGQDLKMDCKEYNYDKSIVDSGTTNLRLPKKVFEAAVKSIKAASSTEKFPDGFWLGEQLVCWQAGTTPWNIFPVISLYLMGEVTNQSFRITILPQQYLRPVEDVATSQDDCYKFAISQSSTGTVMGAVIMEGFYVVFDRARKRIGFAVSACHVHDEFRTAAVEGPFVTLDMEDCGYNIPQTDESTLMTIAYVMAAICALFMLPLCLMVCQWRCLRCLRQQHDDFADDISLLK
Sequence of Cholinesterase (P06276 whole entry): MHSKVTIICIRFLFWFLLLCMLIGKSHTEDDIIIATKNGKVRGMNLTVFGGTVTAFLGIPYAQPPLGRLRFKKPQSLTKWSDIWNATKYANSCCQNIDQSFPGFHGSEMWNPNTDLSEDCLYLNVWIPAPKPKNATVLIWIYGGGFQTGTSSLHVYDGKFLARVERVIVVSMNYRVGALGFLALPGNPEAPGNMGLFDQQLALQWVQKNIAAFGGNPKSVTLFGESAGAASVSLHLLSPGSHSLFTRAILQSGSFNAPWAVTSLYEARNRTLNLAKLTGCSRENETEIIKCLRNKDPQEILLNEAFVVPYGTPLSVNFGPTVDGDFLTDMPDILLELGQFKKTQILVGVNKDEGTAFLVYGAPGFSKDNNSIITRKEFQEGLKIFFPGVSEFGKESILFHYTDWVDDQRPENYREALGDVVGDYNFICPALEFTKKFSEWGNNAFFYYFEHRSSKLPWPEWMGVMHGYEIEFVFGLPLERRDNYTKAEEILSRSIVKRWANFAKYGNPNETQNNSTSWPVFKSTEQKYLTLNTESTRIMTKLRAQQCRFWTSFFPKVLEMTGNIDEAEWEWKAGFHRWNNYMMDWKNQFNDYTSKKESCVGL
Sequence of Amyloid-beta precursor protein (Homo sapiens) (P05067 whole entry): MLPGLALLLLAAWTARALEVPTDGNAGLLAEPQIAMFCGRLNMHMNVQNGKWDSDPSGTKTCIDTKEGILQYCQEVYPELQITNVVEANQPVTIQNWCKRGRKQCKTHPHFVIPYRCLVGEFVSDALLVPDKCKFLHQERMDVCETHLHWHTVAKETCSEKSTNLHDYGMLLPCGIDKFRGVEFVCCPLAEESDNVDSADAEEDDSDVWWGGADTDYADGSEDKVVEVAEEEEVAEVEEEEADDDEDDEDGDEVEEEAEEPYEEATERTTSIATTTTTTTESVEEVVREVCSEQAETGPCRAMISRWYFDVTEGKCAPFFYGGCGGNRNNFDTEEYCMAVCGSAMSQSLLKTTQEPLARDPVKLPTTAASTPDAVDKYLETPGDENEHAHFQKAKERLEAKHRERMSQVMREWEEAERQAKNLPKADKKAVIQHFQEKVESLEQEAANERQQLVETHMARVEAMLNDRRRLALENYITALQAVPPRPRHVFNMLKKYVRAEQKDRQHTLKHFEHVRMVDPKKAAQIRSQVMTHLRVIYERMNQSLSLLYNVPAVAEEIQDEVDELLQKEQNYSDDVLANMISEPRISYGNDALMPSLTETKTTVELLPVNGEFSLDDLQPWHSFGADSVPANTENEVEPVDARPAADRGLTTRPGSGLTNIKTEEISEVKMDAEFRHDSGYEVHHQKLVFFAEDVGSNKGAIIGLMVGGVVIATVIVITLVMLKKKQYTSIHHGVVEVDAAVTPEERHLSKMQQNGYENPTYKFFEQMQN
T3 sequence (P22303 whole entry): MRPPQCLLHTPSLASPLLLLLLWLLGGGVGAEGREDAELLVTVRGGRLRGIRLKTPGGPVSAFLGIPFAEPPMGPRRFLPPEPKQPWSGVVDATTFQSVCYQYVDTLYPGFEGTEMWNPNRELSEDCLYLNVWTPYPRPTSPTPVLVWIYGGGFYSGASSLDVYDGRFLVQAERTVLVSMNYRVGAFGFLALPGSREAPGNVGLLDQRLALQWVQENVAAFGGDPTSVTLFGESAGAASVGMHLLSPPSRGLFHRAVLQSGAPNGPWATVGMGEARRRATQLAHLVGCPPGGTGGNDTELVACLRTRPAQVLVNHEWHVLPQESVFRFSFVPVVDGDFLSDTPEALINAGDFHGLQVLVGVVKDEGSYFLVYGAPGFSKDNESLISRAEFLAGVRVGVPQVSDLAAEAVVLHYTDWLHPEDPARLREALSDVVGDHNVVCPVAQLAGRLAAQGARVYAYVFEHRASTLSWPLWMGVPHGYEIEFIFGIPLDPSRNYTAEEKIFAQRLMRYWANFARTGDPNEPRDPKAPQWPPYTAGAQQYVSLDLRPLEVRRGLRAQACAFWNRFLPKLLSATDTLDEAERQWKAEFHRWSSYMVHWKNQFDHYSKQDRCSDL

SMILES: COC(=O)CCc1ccc2nc(-c3ccccc3)c3c(c2c1)OCCC3
IC50 [1]: > 10000 nM
inhibition [2]: inactive
inhibition [3]: inactive

SMILES: Cl.Cl.Cl.O=C(CCc1ccc2nc(-c3ccccc3)c3c(c2c1)OCCC3)NCCCCCCCCNc1c2c(nc3cc(Cl)ccc13)CCCC2
Papp [4]: 10.1 ×10⁻⁶ cm/s
IC50 [1]: 34.1 nM
inhibition [2]: 47.3%
IC50 [5]: 1080 nM
inhibition [3]: 77.8%
IC50 [6]: 1810 nM
IC50 [7]: 14 nM

SMILES: Cl.Cl.O=C(CCc1ccc2nc(-c3ccccc3)c3c(c2c1)OCCC3)NCCCCCNc1c2c(nc3cc(Cl)ccc13)CCCC2
Papp [4]: 10.6 ×10⁻⁶ cm/s
IC50 [1]: 23.9 nM
inhibition [2]: 12.2%
IC50 [5]: 290 nM
inhibition [3]: inactive
IC50 [7]: 9.64 nM

SMILES: O=C(NCCCCCCCCCNc1c2c(nc3cc(Cl)ccc13)CCCC2)c1ccc2nc(-c3ccc(Cl)cc3)c3c(c2c1)OCCC3
IC50 [1]: 24 nM
IC50 [5]: 1390 nM
IC50 [7]: 24.9 nM

SMILES: Cl.Cl.Cl.Cl.O=C(NCCCCCCCNc1c2c(nc3cc(Cl)ccc13)CCCC2)c1ccc2nc(-c3ccc(Cl)cc3)c3c(c2c1)OCCC3
Papp [4]: 17.7 ×10⁻⁶ cm/s
IC50 [1]: 10.3 nM
inhibition [2]: 28.6%
IC50 [5]: 1930 nM
inhibition [3]: 14.5%
IC50 [7]: 18.3 nM

SMILES: Cl.Cl.Cl.O=C(CCc1ccc2nc(-c3ccccc3)c3c(c2c1)OCCC3)NCCCCNc1c2c(nc3cc(Cl)ccc13)CCCC2
Papp [8]: 15.1 ×10⁻⁶ cm/s
IC50 [1]: 48.1 nM
inhibition [2]: 45.3%
IC50 [5]: 586 nM
inhibition [3]: inactive
IC50 [7]: 16.6 nM

SMILES: Cl.Cl.Cl.O=C(CCc1ccc2nc(-c3ccccc3)c3c(c2c1)OCCC3)NCCCCCCNc1c2c(nc3cc(Cl)ccc13)CCCC2
Papp [8]: 13.2 ×10⁻⁶ cm/s
IC50 [1]: 30.8 nM
inhibition [2]: 30.8%
IC50 [5]: 218 nM
inhibition [3]: 19.6%
IC50 [7]: 11.1 nM

SMILES: O=C(NCCCCCCCCCCNc1c2c(nc3cc(Cl)ccc13)CCCC2)c1ccc2nc(-c3ccc(Cl)cc3)c3c(c2c1)OCCC3
IC50 [1]: 93.7 nM
inhibition [2]: 20.5%
IC50 [5]: 1620 nM
inhibition [3]: inactive
IC50 [7]: 50 nM

SMILES: CC[N+](C)(CC)CCC[n+]1c(-c2ccccc2)c2cc(N)ccc2c2ccc(N)cc21 [PROPIDIUM]
IC50 [1]: 6290 nM
inhibition [2]: 89.8%

SMILES: O=C(NCCCCCCCCNc1c2c(nc3cc(Cl)ccc13)CCCC2)c1ccc2nc(-c3ccc(Cl)cc3)c3c(c2c1)OCCC3
Ki [9]: 1.91 nM
IC50 [1]: 10.4 nM
inhibition [2]: 21.5%
IC50 [5]: 331 nM
inhibition [3]: 18.5%
IC50 [7]: 7.03 nM

SMILES: CN(C)CCCN1c2ccccc2Sc2ccc(Cl)cc21 [CHLORPROMAZINE]
Papp [4]: 13.6 ×10⁻⁶ cm/s
Papp [8]: 8.5 ×10⁻⁶ cm/s

SMILES: Cl.Cl.Cl.Cl.O=C(NCCCCCCNc1c2c(nc3cc(Cl)ccc13)CCCC2)c1ccc2nc(-c3ccc(Cl)cc3)c3c(c2c1)OCCC3
Papp [4]: 14.9 ×10⁻⁶ cm/s
IC50 [1]: 20.4 nM
inhibition [2]: 16.4%
IC50 [5]: 1070 nM
inhibition [3]: inactive
IC50 [7]: 19.2 nM

SMILES: c1ccc2c(NCCCCCCCNc3c4c(nc5ccccc35)CCCC4)c3c(nc2c1)CCCC3
IC50 [6]: 7500 nM

SMILES: Cl.Cl.Cl.O=C(CCc1ccc2nc(-c3ccccc3)c3c(c2c1)OCCC3)NCCCCCCCNc1c2c(nc3cc(Cl)ccc13)CCCC2
Papp [4]: 10.2 ×10⁻⁶ cm/s
IC50 [1]: 29.9 nM
inhibition [2]: 49.1%
IC50 [5]: 234 nM
inhibition [3]: 34.4%
IC50 [7]: 14.4 nM

SMILES: CCOC(=O)c1ccc2nc(-c3ccc(Cl)cc3)c3c(c2c1)OCCC3
IC50 [1]: > 10000 nM
IC50 [5]: > 10000 nM
IC50 [7]: > 10000 nM

Papp [8]: 19.8 ×10⁻⁶ cm/s
inhibition [2]: 7.1%
inhibition [3]: inactive
SMILES: Cl.Nc1c2c(nc3cc(Cl)ccc13)CCCC2
